Assays:
Format in all cases: binding
TEAD1 YAP50-100 = TEAD1 YAP50-100 (Homo sapiens, UniProt P28347); assay: TEAD1-YAP HTRF (TR-FRET) protein-protein interaction assay; details: TEAD1, YAP peptide 50-100, HTRF; for EC50: read-out: TEAD1 YAP50-100 HTRF combined: EC50
Procedure: (§1) Purified His-tagged TEAD protein (YAP Binding Domain, amino acids 217-447) is pre-incubated with Europium labelled anti-His antibody tracer (Perkin Elmer Cat #AD0110). Small molecule Inhibitors are then incubated with the TEAD-Eu protein complex for 30 minutes to allow for binding to TEAD protein. Biotinylated YAP peptide for TEAD-YAP assays (AA's 50-100) or biotinylated TAZ peptide for TEAD-TAZ assays (AA's 13-57) that has been pre-incubated with streptavidin-xl665 acceptor (CIS-Bio Cat #610SAXAC) or is added to the compound-TEAD mix. The TEAD-YAP-inhibitor mixture is then incubated for 60 minutes at room temperature. All reactions are carried out in a polystyrene plate. After 60 minutes, the plate is read on a plate reader using TR-FRET mode with wavelengths of 665 nm/615 nm. If YAP or TAZ binds to TEAD as expected, a TR-FRET signal results from the proximity of YAP or TAZ and TEAD after binding. If an inhibitor such as peptide 17 (Selleckchem Cat #58164) interferes with YAP-TEAD or TAZ-TEAD binding, the disruption of the YAP or TAZ:TEAD interaction results in a decrease in TR-FRET signal. The potency of compounds as YAP:TEAD or TAZ:TEAD protein-protein interaction (PPi) inhibitors is determined by an IC50 or EC50 value generated using a non-linear four parameter curve fit.

TEAD2 YAP50-100 = TEAD2 YAP50-100 (Homo sapiens, UniProt Q15562); assay: TEAD2-YAP HTRF (TR-FRET) protein-protein interaction assay; details: TEAD2, YAP peptide 50-100, HTRF; for EC50: read-out: TEAD2 YAP50-100 HTRF combined: EC50
Procedure: as §1

TEAD3 YAP50-100 = TEAD3 YAP50-100 (Homo sapiens, UniProt Q99594); assay: TEAD3-YAP HTRF (TR-FRET) protein-protein interaction assay; details: TEAD3, YAP peptide 50-100, HTRF; for EC50: read-out: TEAD3 YAP50-100 HTRF combined: EC50
Procedure: as §1

TEAD4 YAP50-100 = TEAD4 YAP50-100 (Homo sapiens, UniProt Q15561); assay: TEAD4-YAP HTRF (TR-FRET) protein-protein interaction assay; details: TEAD4, YAP peptide 50-100, HTRF; for EC50: read-out: TEAD4 YAP50-100 HTRF combined: EC50
Procedure: as §1

[1] = target: TEAD1 TAZ (amino acids 13-57) (Homo sapiens, UniProt P28347); assay: TEAD1-TAZ HTRF (TR-FRET) protein-protein interaction assay; details: for TEAD1 TAZ HTRF combined: Max % Inhibition: TEAD1, TAZ peptide; for EC50: TEAD1-TAZ HTRF, TR-FRET 665 nm/615 nm, read-out: TEAD1 TAZ HTRF combined: EC50
Procedure: as §1

[2] = target: TEAD2 TAZ (amino acids 13-57) (Homo sapiens, UniProt Q15562); assay: TEAD2-TAZ HTRF (TR-FRET) protein-protein interaction assay; details: for TEAD2 TAZ HTRF combined: Max % Inhibition: TEAD2, TAZ peptide; for EC50: TEAD2-TAZ HTRF, TR-FRET 665 nm/615 nm, read-out: TEAD2 TAZ HTRF combined: EC50
Procedure: as §1

[3] = target: TEAD3 TAZ (amino acids 13-57) (Homo sapiens, UniProt Q99594); assay: TEAD3-TAZ HTRF (TR-FRET) protein-protein interaction assay; details: for TEAD3 TAZ HTRF combined: Max % Inhibition: TEAD3, TAZ peptide; for EC50: TEAD3-TAZ HTRF, TR-FRET 665 nm/615 nm, read-out: TEAD3 TAZ HTRF combined: EC50
Procedure: as §1

[4] = target: TEAD4 TAZ (amino acids 13-57) (Homo sapiens, UniProt Q15561); assay: TEAD4-TAZ HTRF (TR-FRET) protein-protein interaction assay; details: for TEAD4 TAZ HTRF combined: Max % Inhibition: TEAD4, TAZ peptide; for EC50: TEAD4-TAZ HTRF, TR-FRET 665 nm/615 nm, read-out: TEAD4 TAZ HTRF combined: EC50
Procedure: as §1

TEAD3 TAZ (amino acids 13-57), sequence (Q99594 173-435 limits assumed): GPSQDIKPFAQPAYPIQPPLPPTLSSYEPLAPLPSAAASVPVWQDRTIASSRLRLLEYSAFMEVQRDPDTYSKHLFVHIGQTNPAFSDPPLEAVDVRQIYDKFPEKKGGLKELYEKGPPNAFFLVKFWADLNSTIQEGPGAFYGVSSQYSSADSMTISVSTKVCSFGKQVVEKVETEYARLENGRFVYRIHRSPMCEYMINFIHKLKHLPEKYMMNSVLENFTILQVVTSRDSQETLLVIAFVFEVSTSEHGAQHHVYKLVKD
TEAD3 YAP50-100, sequence (Q99594 173-435 limits assumed): as above
TEAD1 TAZ (amino acids 13-57), sequence (P28347 167-426 limits assumed): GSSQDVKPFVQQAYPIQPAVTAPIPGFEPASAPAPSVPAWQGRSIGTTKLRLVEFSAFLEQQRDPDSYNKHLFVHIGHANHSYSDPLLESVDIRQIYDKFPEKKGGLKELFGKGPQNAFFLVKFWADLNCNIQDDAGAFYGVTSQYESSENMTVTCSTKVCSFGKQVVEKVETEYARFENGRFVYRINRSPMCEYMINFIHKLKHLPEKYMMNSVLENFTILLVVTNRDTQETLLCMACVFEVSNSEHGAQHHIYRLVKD
TEAD1 YAP50-100, sequence (P28347 167-426 limits assumed): as above
TEAD2 YAP50-100, sequence (Q15562 217-447): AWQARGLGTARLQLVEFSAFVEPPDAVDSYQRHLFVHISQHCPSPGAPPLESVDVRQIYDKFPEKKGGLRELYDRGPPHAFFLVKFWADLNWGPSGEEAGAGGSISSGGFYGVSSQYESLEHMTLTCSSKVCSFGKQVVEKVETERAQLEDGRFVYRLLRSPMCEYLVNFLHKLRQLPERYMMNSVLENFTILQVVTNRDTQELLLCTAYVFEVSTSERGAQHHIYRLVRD
TEAD2 TAZ (amino acids 13-57), sequence (Q15562 217-447): as above
TEAD4 YAP50-100, sequence (Q15561 217-434 limits assumed): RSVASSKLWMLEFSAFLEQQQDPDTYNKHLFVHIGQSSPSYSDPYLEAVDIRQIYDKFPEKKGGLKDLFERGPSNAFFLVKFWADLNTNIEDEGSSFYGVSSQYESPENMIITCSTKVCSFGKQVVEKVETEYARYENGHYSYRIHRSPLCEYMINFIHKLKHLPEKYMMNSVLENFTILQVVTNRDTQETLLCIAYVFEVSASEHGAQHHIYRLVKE
TEAD4 TAZ (amino acids 13-57), sequence (Q15561 217-434 limits assumed): as above

Row | SMILES | TEAD1 YAP50-100 HTRF combined: Max % Inhibition (TEAD1 YAP50-100) [%] | EC50 (TEAD1 YAP50-100) [nM] | TEAD2 YAP50-100 HTRF combined: Max % Inhibition (TEAD2 YAP50-100) [%] | EC50 (TEAD2 YAP50-100) [nM] | TEAD3 YAP50-100 HTRF combined: Max % Inhibition (TEAD3 YAP50-100) [%] | EC50 (TEAD3 YAP50-100) [nM] | TEAD4 YAP50-100 HTRF combined: Max % Inhibition (TEAD4 YAP50-100) [%] | EC50 (TEAD4 YAP50-100) [nM] | TEAD1 TAZ HTRF combined: Max % Inhibition [1] [%] | EC50 [1] [nM] | TEAD2 TAZ HTRF combined: Max % Inhibition [2] [%] | EC50 [2] [nM] | TEAD3 TAZ HTRF combined: Max % Inhibition [3] [%] | EC50 [3] [nM] | TEAD4 TAZ HTRF combined: Max % Inhibition [4] [%] | EC50 [4] [nM]
1 | O=C(c1c(-c2cnccn2)nn2c(=O)cc(-c3ccc(C4CCCCC4)c(F)c3)[nH]c12)N1CC(CF)C1 [Compound 23, 5-(4-Cyclohexyl-3-fluorophenyl)-3-(3-(fluoromethyl)azetidine-1-carbonyl)-2-(pyrazin-2-yl)pyrazolo[1,5-a]pyrimidin-7(4H)-one] | 70.0 | 40 | 55.5 | 10 | 64.0 | 110 | 39.5 | 50 | 61.5 | 70 | 55.5 | 10 | 56.5 | 110 | 35.0 | 50
2 | C[C@H]1[C@@H](CF)CN1C(=O)c1c(-c2ncccn2)nn2c(=O)cc(-c3ccc(C4CCCCC4)cc3)[nH]c12 (single isomer, unassigned) [Isomer B, Example 40] | 76.0 | 130 | 68.0 | 80 | 68.0 | 440 | 49.5 | 2000 | 70.0 | 140 | 78.5 | 120 | 70.0 | 530 | 51.0 | 2100
3 | Cc1nccnc1-c1nn2c(=O)cc(-c3ccc(CC4CCCC4)cc3)[nH]c2c1C(=O)N1C[C@H](CF)[C@@H]1C (single isomer, unassigned) [Isomer B, Example 42] | 68.0 | 40 | 68.0 | 10 | 68.0 | 80 | 52.5 | 20 | 59.0 | 60 | 62.0 | 10 | 60.0 | 90 | 48.5 | 20
4 | Cc1nccnc1-c1nn2c(=O)cc(-c3ccc(-c4ccccc4)cc3)[nH]c2c1C(=O)N1CC(CF)C1 [Compound 60, 5-([1,1′-Biphenyl]-4-yl)-3-(3-(fluoromethyl)azetidine-1-carbonyl)-2-(3-methylpyrazin-2-yl)pyrazolo[1,5-a]pyrimidin-7(4H)-one] | 80.0 | 30 | 66.5 | 10 | 78.0 | 200 | 60.0 | 610 | 78.5 | 40 | 66.5 | 10 | 74.0 | 220 | 64.0 | 510
5 | CCCCc1ccc(-c2cc(=O)n3nc(-c4nccnc4C)c(C(=O)N4CC(CF)C4)c3[nH]2)cc1 [Compound 58, 5-(4-Butylphenyl)-3-(3-(fluoromethyl)azetidine-1-carbonyl)-2-(3-methylpyrazin-2-yl)pyrazolo[1,5-a]pyrimidin-7(4H)-one] | 71.0 | 40 | 63.0 | 10 | 64.5 | 90 | 59.0 | 180 | 70.5 | 40 | 66.5 | 10 | 58.5 | 100 | 68.5 | 140
6 | Cc1cncc(-c2nn3c(=O)cc(-c4ccc(C5CCCCC5)cc4)[nH]c3c2C(=O)N2CC(CF)C2)n1 [Compound 28, 5-(4-Cyclohexylphenyl)-3-(3-(fluoromethyl)azetidine-1-carbonyl)-2-(6-methylpyrazin-2-yl)pyrazolo[1,5-a]pyrimidin-7(4H)-one] | 76.0 | 40 | 59.5 | 20 | 68.0 | 100 | 43.5 | 130 | 74.0 | 60 | 66.5 | 10 | 63.0 | 100 | 41.0 | 120
7 | C[C@@H]1[C@H](CF)CN1C(=O)c1c(-c2cnccn2)nn2c(=O)cc(-c3ccc(C4CCCCC4)cc3)[nH]c12 (single isomer, unassigned) [Isomer B, Example 39] | 62.0 | 170 | 17.5 | 170 | 67.0 | 2450 | 46.0 | 6450 | 55.0 | 170 | 37.0 | 190 | 68.0 | 2500 | 49.5 | 6200
